Source: patent US5488051A, “Substituted 5,6-dihydro-5-oxo-1,4-dithiino-(2,3-d)-pyridazine-2,3-dicarbonitriles, compositions containing them and their use as antimicrobials” (The Dow Chemical Company, priority 1994, dated 1996)
Values after ≈ are worked out from the molar mass of the structure shown. Where two headings read alike, the source gives them in different places.

What was measured:
[1] = system: Bacillus subtilis (Bs); assay: MIC for Bacillus subtilis, nutrient agar; type: cell-based, Bacillus subtilis ATCC 8473; conditions: 30° C., 48 hours, read-out: Minimum Inhibitory Concentration (MIC), Bs
Procedure: (§1) The minimum inhibitory concentration (MIC) for the compounds listed in Table I is determined for 9 bacteria, using nutrient agar; and 7 yeast and fungi, using malt yeast agar. A one percent solution of the test compound is prepared in a mixture of acetone and water.
(§2) Nutrient agar is prepared at pH 6.8, representing a neutral medium, and at pH 8.2, representing an alkaline medium. The nutrient agars are prepared by adding 23 g of nutrient agar to one-liter of deionized water. In addition, the alkaline medium is prepared by adjusting a 0.04M solution of N-[tris-(hydroxymethyl)methyl]-glycine buffered deionized water with concentrated sodium hydroxide to a pH of 8.5.
(§3) The test tubes containing the malt yeast agar and the nutrient agar are cooled in a water bath until the temperature of the agar is 48° C. Then, an appropriate amount of the one percent solution of the test compound is added (except in the controls where no compound is added) to the respective test tubes so that the final concentrations are zero (0), 1.0, 2.5, 5, 10, 25, 50, 100, 250 and 500 parts per million of the test compound in each of the respective type of agar. The contents of each of the test tubes are then transferred to separate petri plates. After drying for 24 hours, the petri plates containing nutrient agar are inoculated with bacteria and those containing malt yeast agar are inoculated with yeast and fungi.
(§4) The inoculation with bacteria is accomplished by using the following procedure. Twenty-four hour-cultures of each of the bacteria are prepared by incubating the respective bacteria in tubes containing nutrient broth for 24 hours at 30° C. in a shaker. Dilutions of each of the 24 hour-cultures are made so that nine separate suspensions (one for each of the nine test bacteria) are made, each containing 10^8 colony forming units (CFU) per mL of suspension of a particular bacteria. Aliquots of 0.3 mL of each of the bacterial suspensions are used to fill the individual wells of Steer's Replicator. For each microbial suspension, 0.3 mL was used to fill three wells (i.e., three wells of 0.3 mL each) so that for the nine different bacteria, 27 wells are filled. The Steer's Replicator is then used to inoculate both the neutral and alkaline pH nutrient agar petri plates.
(§5) The inoculated petri plates are incubated at 30° C. for 48 hours and then read to determine if the test compound which is incorporated into the agar prevented growth of the respective bacteria.
(§6) Table II list the bacteria, yeast and fungi used in the MIC test described above along with their respective American Type Culture Collection (ATCC) identification numbers.

[2] = system: Enterobacter aerogenes (Ea); assay: MIC for Enterobacter aerogenes, nutrient agar; type: cell-based, Enterobacter aerogenes ATCC 13048; conditions: Klebsiella aerogenes, nutrient agar, 30° C., 48 hours, read-out: Minimum Inhibitory Concentration (MIC), Ea
Procedure: as §1, §2, §3, §4, §5, §6

[3] = system: Escherichia coli (Ec); assay: MIC for Escherichia coli, nutrient agar; type: cell-based, Escherichia coli ATCC 11229; conditions: 30° C., 48 hours, read-out: Minimum Inhibitory Concentration (MIC), Ec
Procedure: as §1, §2, §3, §4, §5, §6

[4] = system: Klebsiella pneumonias (Kp); assay: MIC for Klebsiella pneumonias, nutrient agar; type: cell-based, Klebsiella pneumonias ATCC 8308; conditions: 30° C., 48 hours, read-out: Minimum Inhibitory Concentration (MIC), Kp
Procedure: as §1, §2, §3, §4, §5, §6

[5] = system: Proteus vulgaris (Pv); assay: MIC for Proteus vulgaris, nutrient agar; type: cell-based, Proteus vulgaris ATCC 881; conditions: 30° C., 48 hours, read-out: Minimum Inhibitory Concentration (MIC), Pv
Procedure: as §1, §2, §3, §4, §5, §6

[6] = system: Pseudomonas aeruginosa (PRD-10); assay: MIC for Pseudomonas aeruginosa PRD-10, nutrient agar; type: cell-based, Pseudomonas aeruginosa ATCC 15442; conditions: 30° C., 48 hours, read-out: Minimum Inhibitory Concentration (MIC), PRD
Procedure: as §1, §2, §3, §4, §5, §6

[7] = system: Pseudomonas aeruginosa (Pa); assay: MIC for Pseudomonas aeruginosa, nutrient agar; type: cell-based, Pseudomonas aeruginosa ATCC 10145; conditions: 48 hours, read-out: Minimum Inhibitory Concentration (MIC), Pa
Procedure: as §1, §2, §3, §4, §5, §6

[8] = system: Salmonella choleraesuis; assay: MIC for Salmonella choleraesuis, nutrient agar; type: cell-based, Salmonella choleraesuis ATCC 10708; conditions: Salmonella enterica, 30° C., 48 hours, read-out: Minimum Inhibitory Concentration (MIC), SC
Procedure: as §1, §2, §3, §4, §5, §6

[9] = system: Staphylococcus aureus (Sa); assay: MIC for Staphylococcus aureus, nutrient agar; type: cell-based, Staphylococcus aureus ATCC 6538; conditions: 30° C., 48 hours, read-out: Minimum Inhibitory Concentration (MIC), Sa
Procedure: as §1, §2, §3, §4, §5, §6

[10] = system: Aspergillus niger (An); assay: MIC for Aspergillus niger, malt yeast agar; type: cell-based, Aspergillus niger ATCC 16404; conditions: malt yeast agar; 30° C., 72 hours for fungi; read-out: Minimum Inhibitory Concentration (MIC), An
Procedure: as §1
(§7) Malt yeast agar is prepared by adding 3 g yeast extract and 45 g malt agar per liter of deionized water. The specific agar is dispensed in 30 mL aliquots into 25×200 mm test tubes, capped and autoclaved for 15 minutes at 115° C.
as §3
(§8) The inoculation with the yeast and fungi is accomplished as follows. Cultures of yeast and fungi are incubated for seven days on malt yeast agar at 30° C. These cultures are used to prepare suspensions by the following procedure. A suspension of each organism is prepared by adding 10 mL of sterile saline and 10 microliters of octylphenoxy polyethoxy ethanol to the agar slant of yeast or fungi. The sterile saline/octylphenoxy polyethoxy ethanol solution is then agitated with a sterile swab to suspend the microorganism grown on the slant. Each resulting suspension is diluted into sterile saline (1 part suspension: 9 parts sterile saline). Aliquots of these dilutions are placed in individual wells of Steer's Replicator and petri plates inoculated as previously described. The petri plates are incubated at 30° C. and read after 48 hours for yeast and 72 hours for fungi.
as §6

[11] = system: Candida albicans (Ca); assay: MIC for Candida albicans, malt yeast agar; type: cell-based, Candida albicans ATCC 10231; conditions: malt yeast agar; 30° C., 48 hours for yeast; read-out: Minimum Inhibitory Concentration (MIC), Ca
Procedure: as §1, §7, §3, §8, §6

[12] = system: Penicillium chrysogenum (Pc); assay: MIC for Penicillium chrysogenum, malt yeast agar; type: cell-based, Penicillium chrysogenum ATCC 9480; conditions: malt yeast agar; 30° C., 72 hours for fungi; read-out: Minimum Inhibitory Concentration (MIC), PC
Procedure: as §1, §7, §3, §8, §6

[13] = system: Saccharomyces cerevisiae; assay: MIC for Saccharomyces cerevisiae, malt yeast agar; type: cell-based, Saccharomyces cerevisiae ATCC 4105; conditions: malt yeast agar, 30° C., 48 hours for yeast, read-out: Minimum Inhibitory Concentration (MIC), Sc
Procedure: as §1, §7, §3, §8, §6

[14] = system: Trichoderma viride (Tv); assay: MIC for Trichoderma viride, malt yeast agar; type: cell-based, Trichoderma viride ATCC 8678; conditions: malt yeast agar; 30° C., 72 hours for fungi; read-out: Minimum Inhibitory Concentration (MIC), Tv
Procedure: as §1, §7, §3, §8, §6

[15] = system: Aureobasidium pullulan (Ap); assay: MIC for Aureobasidium pullulan, malt yeast agar; type: cell-based, Aureobasidium pullulan ATCC 16622; conditions: malt yeast agar; 30° C.; 48 hours for yeast and 72 hours for fungi; read-out: Minimum Inhibitory Concentration (MIC), Ap
Procedure: as §1, §7, §3, §8, §6

[16] = system: Fusarium oxysporum (Fo); assay: MIC for Fusarium oxysporum, malt yeast agar; type: cell-based, Fusarium oxysporum ATCC 48112; conditions: malt yeast agar; 30° C., 72 hours for fungi; read-out: Minimum Inhibitory Concentration (MIC), Fo
Procedure: as §1, §7, §3, §8, §6

| Structure (SMILES) | MIC ([1]; pH 6.8, nutrient agar) [µg/mL] | MIC ([1]; pH 8.2, nutrient agar) [µg/mL] | MIC ([2]; pH 6.8) [µg/mL] | MIC ([2]; pH 8.2) [µg/mL] | MIC ([3]; pH 6.8, nutrient agar) [µg/mL] | MIC ([3]; pH 8.2, nutrient agar) [µg/mL] | MIC ([4]; pH 6.8, nutrient agar) [µg/mL] | MIC ([4]; pH 8.2, nutrient agar) [µg/mL] | MIC ([5]; pH 6.8, nutrient agar) [µg/mL] | MIC ([5]; pH 8.2, nutrient agar) [µg/mL] | MIC ([6]; pH 6.8, nutrient agar) [µg/mL] | MIC ([6]; pH 8.2, nutrient agar) [µg/mL] | MIC ([7]; pH 8.2, 30° C.) [µg/mL] | MIC ([8]; pH 6.8, nutrient agar) [µg/mL] | MIC ([8]; pH 8.2, nutrient agar) [µg/mL] | MIC ([9]; pH 6.8, nutrient agar) [µg/mL] | MIC ([9]; pH 8.2, nutrient agar) [µg/mL] | MIC [10] [µg/mL] | MIC [11] [µg/mL] | MIC [12] [µg/mL] | other results |
| --- | --- | --- | --- | --- | --- | --- | --- | --- | --- | --- | --- | --- | --- | --- | --- | --- | --- | --- | --- | --- | --- |
| N#CC1=C(C#N)Sc2c(cnn(-c3ccccc3)c2=O)S1 [A, 5,6-Dihydro-5-oxo-6-phenyl-1,4-dithiino(2,3-d)pyridazine-2,3-dicarbonitrile] | 50 (≈ 161 µM) | 500 (≈ 1610 µM) | 250 (≈ 806 µM) | > 500 | 50 (≈ 161 µM) | > 500 | 50 (≈ 161 µM) | > 500 | 50 (≈ 161 µM) | > 500 | 500 (≈ 1610 µM) | > 500 | > 500 | 100 (≈ 322 µM) | > 500 | 25 (≈ 80.6 µM) | < 10 | 25 (≈ 80.6 µM) | 25 (≈ 80.6 µM) | 25 (≈ 80.6 µM) | MIC ([7]; pH 6.8, 30° C.): 250 µg/mL (≈ 806 µM); MIC [13]: < 10 µg/mL; MIC [14]: 25 µg/mL (≈ 80.6 µM); MIC [15]: 25 µg/mL (≈ 80.6 µM); MIC [16]: 25 µg/mL (≈ 80.6 µM) |
| N#CC1=C(C#N)Sc2c(cnn(-c3ccc(Cl)cc3)c2=O)S1 [D, 5,6-dihydro-6-(4-chlorophenyl)-5-oxo-1,4-dithiino-(2,3-d)-pyridazine-2,3-dicarbonitrile] | 25 (≈ 72.5 µM) | 250 (≈ 725 µM) | > 500 | > 500 | 100 (≈ 290 µM) | > 500 | > 500 | > 500 | 100 (≈ 290 µM) | > 500 | 500 (≈ 1450 µM) | > 500 | > 500 | 100 (≈ 290 µM) | > 500 | > 500 | > 500 | 10 (≈ 29 µM) | 10 (≈ 29 µM) | 25 (≈ 72.5 µM) | MIC ([7]; pH 6.8, 30° C.): > 500 µg/mL; MIC [13]: 10 µg/mL (≈ 29 µM); MIC [14]: 25 µg/mL (≈ 72.5 µM); MIC [15]: 10 µg/mL (≈ 29 µM); MIC [16]: 10 µg/mL (≈ 29 µM) |
| N#CC1=C(C#N)Sc2c(cnn(-c3cccc(Cl)c3)c2=O)S1 [E, 5,6-dihydro-6-(3-chlorophenyl)-5-oxo-1,4-dithiino-(2,3-d)-pyridazine-2,3-dicarbonitrile] | 25 (≈ 72.5 µM) | 250 (≈ 725 µM) | > 500 | > 500 | 500 (≈ 1450 µM) | > 500 | > 500 | > 500 | 500 (≈ 1450 µM) | > 500 | > 500 | > 500 | > 500 | > 500 | > 500 | 250 (≈ 725 µM) | > 500 | 50 (≈ 145 µM) | 25 (≈ 72.5 µM) | 25 (≈ 72.5 µM) | MIC ([7]; pH 6.8, 30° C.): > 500 µg/mL; MIC [13]: 25 µg/mL (≈ 72.5 µM); MIC [14]: 100 µg/mL (≈ 290 µM); MIC [15]: 25 µg/mL (≈ 72.5 µM); MIC [16]: 50 µg/mL (≈ 145 µM) |
| N#CC1=C(C#N)Sc2c(cnn(-c3ccc(Cl)c(Cl)c3)c2=O)S1 [F, 5,6-dihydro-6-(3,4-dichlorophenyl)-5-oxo-1,4-dithiino-(2,3-d)-pyridazine-2,3-dicarbonitrile] | 100 (≈ 264 µM) | 500 (≈ 1320 µM) | > 500 | > 500 | > 500 | > 500 | > 500 | > 500 | > 500 | > 500 | > 500 | > 500 | > 500 | > 500 | > 500 | 100 (≈ 264 µM) | 250 (≈ 659 µM) | 250 (≈ 659 µM) | 250 (≈ 659 µM) | 250 (≈ 659 µM) | MIC ([7]; pH 6.8, 30° C.): > 500 µg/mL; MIC [13]: 250 µg/mL (≈ 659 µM); MIC [14]: > 500 µg/mL; MIC [15]: 100 µg/mL (≈ 264 µM); MIC [16]: 500 µg/mL (≈ 1320 µM) |
| N#CC1=C(C#N)Sc2c(cnn(-c3ccc(Cl)cc3Cl)c2=O)S1 [G, 5,6-dihydro-6-(2,4-dichlorophenyl)-5-oxo-1,4-dithiino-(2,3-d)-pyridazine-2,3-dicarbonitrile] | 25 (≈ 65.9 µM) | 250 (≈ 659 µM) | > 500 | > 500 | 250 (≈ 659 µM) | > 500 | 250 (≈ 659 µM) | 500 (≈ 1320 µM) | 500 (≈ 1320 µM) | > 500 | 500 (≈ 1320 µM) | > 500 | > 500 | 500 (≈ 1320 µM) | > 500 | 100 (≈ 264 µM) | 250 (≈ 659 µM) | 100 (≈ 264 µM) | 50 (≈ 132 µM) | 100 (≈ 264 µM) | MIC [13]: 50 µg/mL (≈ 132 µM); MIC [14]: 250 µg/mL (≈ 659 µM); MIC [15]: 50 µg/mL (≈ 132 µM); MIC [16]: 100 µg/mL (≈ 264 µM) |
